Measurements as given in patent US5010084A, “Imidazoquinolone derivatives” (Kyowa Hakko Kogyo Co., Ltd., priority 1989, dated 1991).
Where a name gives a salt, the structure may show the parent alone.

Key:
[1] = tested on: zig-zag strips of the tracheae (passively sensitized guinea pigs); assay: Effects on passive Schultz-Dale reaction (broncho-dilatory effects); assay type: cell-based, guinea pig (male Hartley); settings: Cavia porcellus; guinea pig trachea contracted with antigen EWA 1 μg/ml, 37° C., cumulative concentration-relaxation curves; read-out: Passive Schultz-Dale reaction (IC50), concentration of 50% relaxation rate
Experimental: Male Hartley guinea pigs weighing 350 to 500 g were passively sensitized by intraperitoneal injection of rabbit anti-egg white albumin (EWA) serum prepared by the method of Eda et al. [Folia pharmacol., Japon 66, 237, (1970)]. After 24 hours, the guinea pigs were stunned and exsanguinated, and then tracheae were removed. The zig-zag strips of the tracheae were prepared by the method of Emmerson and Mackay [J. Pharm. Pharmacol., 31, 798, (1979)]. The strips were suspended in Krebs-Henseleit solution at 37° C. under aeration of a mixed gas of 95% oxygen and 5% carbon dioxide, and equilibrated for one hour. Antigen (EWA) was then introduced in the solution (final concentration; 1 μg/ml), and the contraction was measured by […] (TD-112s, made by Nihon Kohden K.K., Japan) and recorded on a recorder (Type 3066, made by Yokogawa-Hokushin Denki, K.K. Japan). After the contraction curves reached plateau, the compounds were successively added in order to get cumulative concentration-relaxation curves.

Acute toxicity = settings: mouse, in vivo; male dd-mice, po, mortality for seven days
Experimental: The compounds were orally administrated (po: 300 mg/kg) to male dd-mice weighing 20 to 25 g. LD50 was determined by observing the mortality for seven days after the administration.

[2] = tested on: passively sensitized guinea pigs, experimental asthma; assay: Effects on experimental asthma; assay type: in vivo, guinea pig (male Hartley); settings: guinea pig, 50 mg/kg orally, 1 hour before aerosol of 1.5% EWA; diphenhydramine and propranolol pretreated; control 254
Experimental: Guinea pigs were passively sensitized as follows. Male Hartley guinea pigs weighing 350 to 500g were intraperitoneally injected with 1 ml of rabbit EWA serum prepared by the method of Eda et al. [Folia pharmacol., Japon, 66, 237 (1970)]. The animals were treated with intraperitoneal injection of diphenhydramine (20 mg/kg) and propranolol (5 mg/kg), 30 minutes before administration of test compounds. 17 hours after the sensitization, the test compounds (50 mg/kg) were orally administrated to sensitized animals. After one hour from the administration of the test compounds, the guinea pigs were placed in plastic observation box and were exposed to an aerosal antigen of 1.5% EWA. The time until the onset of respiratory […] symptom [collapse time (second)] was measured as a result of experimental asthma.

SMILES | IC50 [1] | LD50 at 168 h (Acute toxicity) | Experimental asthma, collapse time (time until the onset of respiratory distresslike symptom) [2]
Cn1c(=O)c2[nH]cnc2n(C)c1=O [Aminophylline, reference compound] | 23 µM |  | 
CCCCn1c(=O)c2c(ncn2CC(C)=O)c2ccccc21 [Compound 6, 3-Acetonyl-5-n-butyl-3H,5H-imidazo[4,5,-c]quinolin-4-one] | 7.9 µM | > 300 mg/kg | 530 s
CCCCn1cnc2c3ccccc3n(CCCC)c(=O)c21 [Compound 5, 3,5-Di-n-Butyl-3H,5H-imidazo [4,5,-c] quinolin-4-one hydrochloride] |  | > 300 mg/kg | 
CCCCn1c(=O)c2c(ncn2CC(=O)OC(C)(C)C)c2ccccc21 [Compound 7, 3-tert-Butoxycarbonylmethyl-5-n-butyl-3H,5H-imidazo[4,5-c]quinolin-4-one] | 0.47 µM |  | 
Cn1c(=O)c2[nH]cnc2n(C)c1=O [Theophylline, reference compound] |  |  | 414 s
CCCCn1c(=O)c2c(ncn2C(C)C)c2ccccc21 [Compound 4, 5-n-Butyl-3-isopropyl-3H,5H-imidazo[4,5,-c]quinolin-4-one hydrochloride] | 3.7 µM | > 300 mg/kg | 
CCCCn1c(=O)c2c(ncn2CC)c2ccccc21.Cl [Compound 2, 5-n-Butyl-3-ethyl-3H,5H-imidazo[4,5-c]quinolin-4-one hydrochloride] | 2 µM | > 300 mg/kg | 
CCn1c(=O)c2c(ncn2C)c2ccccc21 [Compound 9, 5-Ethyl-3-methyl-3H,5H-imidazo[4,5,-c]quinolin-4-one] | 1.3 µM |  | 
CCCCn1c(=O)c2c(ncn2CCC)c2ccccc21.Cl [Compound 3, 5-n-Butyl-3-n-propyl-3H,5H-imidazo[4,5-c]quinolin-4-one hydrochloride] | 6.8 µM | > 300 mg/kg | 348 s
CCCCn1c(=O)c2c(ncn2CC(=O)O)c2ccccc21 [Compound 8, 5-n-Butyl-3-carboxymethyl-3H,5H-imidazo[4,5,-c]quinolin-4-one] | 6.7 µM |  | 
CCCCn1c(=O)c2c(ncn2C)c2ccccc21 [Compound 1, 5-n-Butyl-3-methyl-3H,5H-imidazo[4,5,-c]quinolin-4-one] | 6.7 µM | > 200 mg/kg | 429 s
